Results published in US8278309B2, “Synthetic mimetics of host defense and uses thereof” (priority 2008, dated 2012).
Structures can show the parent of a compound that is named as a salt. Where two headings read alike, the source gives them in different places.

Columns and labels:
[1] = rat, in vivo, iv
Protocol: (§3) Maximum tolerated dose (MTD) determinations were made in ascending/descending dose studies in mice and rats. Compound A was administered by either i.v. bolus injection in the tail vein of mice and rats or by i.v. infusion via catheter in the femoral vein of rats. At each dose, two to three animals were administered compound and clinical signs were recorded over a 4 to 7 day period. Gross necropsy was performed at the conclusion of the study.

[2] = In vitro metabolic stability, blood plasma (data not shown); format: in vitro ADME
Protocol: Pooled plasma samples from human (mixed gender), rat (mixed breed and gender) and dog (mixed breed and gender) were incubated with Compound A (5 μM) at 37° C. for 0 and 60 minutes (duplicate samples). Incubations were terminated by addition of ice-cold precipitation solvent (acetonitrile:glacial acetic acid, 9:1 v/v). Supernatants were diluted with equal volume of 0.1% formic acid and analyzed by HPLC-MS/MS. Plasma stability is reported as % parent compound at 60 minutes relative to amount of parent at 0 minutes.

in vivo [3] = settings: rat, iv
Protocol: as §3

MSSA 29213 = assay: Mouse thigh burden model against MSSA 29213; format: in vivo
Staph. spp. (coagulase−) = assay: MIC broth microdilution, Gram-positive clinical isolates; format: cell-based; settings: Staph. spp. (coagulase−); 2-3 isolates/organism; read-out: MIC
Protocol: (§1) Compound A was evaluated in vitro in accordance with defined CLSI documents specific to the organisms (aerobic, anaerobic or yeast) tested in this study. Ampicillin, ceftazidime, cefuroxime, ciprofloxacin, linezolid, and vancomycin were tested alongside as comparator agents for aerobic bacteria; clindamycin and metronidazole were tested as comparators for anaerobes; fluconazole was tested as a comparator for yeast isolates. Stock solutions of Compound A were prepared in dimethyl sulfoxide (DMSO). Ampicillin, ceftazidime, cefuroxime, ciprofloxacin, linezolid, vancomycin, metronidazole, clindamycin, and fluconazole were prepared each according to its manufacturer's guideline.
(§2) Minimum inhibitory concentrations (MICs) in μg/ml were determined according to CLSI guideline M7-A7 by broth microdilution. All aerobes were tested using Mueller-Hinton broth medium with the exception of Streptococcus spp., which were tested using cation-adjusted Mueller-Hinton broth supplemented with 2-5% lysed horse blood.

Staph. saprophyticus = assay: as above; format: cell-based; settings: Staphylococcus saprophyticus; Staph. saprophyticus; 2-3 isolates/organism; read-out: MIC
Protocol: as §1, §2

Strept. agalactiae = assay: as above; format: cell-based; settings: Streptococcus agalactiae; Strept. agalactiae; 2-3 isolates/organism; read-out: MIC
Protocol: as §1, §2

Strept. viridians = assay: as above; format: cell-based; settings: Strept. viridians; 2-3 isolates/organism; read-out: MIC
Protocol: as §1, §2

Entero. faecalis = assay: as above; format: cell-based; settings: Enterococcus faecalis; Entero. faecalis; 2-3 isolates/organism; read-out: MIC
Protocol: as §1, §2

Staph. spidermidis = assay: as above; format: cell-based; settings: Staph. spidermidis; 2-3 isolates/organism; read-out: MIC
Protocol: as §1, §2

Entero. faecium (VRE) = assay: as above; format: cell-based; settings: Enterococcus faecium; Entero. faecium (VRE); 2-3 isolates/organism; read-out: MIC
Protocol: as §1, §2

Staph. aureus (MRSA) = assay: as above; format: cell-based; settings: Staphylococcus aureus; Staph. aureus (MRSA); 2-3 isolates/organism; read-out: MIC
Protocol: as §1, §2

Strept. pneumoniae = assay: as above; format: cell-based; settings: Streptococcus pneumoniae; Strept. pneumoniae; 2-3 isolates/organism; read-out: MIC
Protocol: as §1, §2

Strept. pyogenes = assay: as above; format: cell-based; settings: Streptococcus pyogenes; Strept. pyogenes; 2-3 isolates/organism; read-out: MIC
Protocol: as §1, §2

in vivo [4] = settings: mouse, iv
Protocol: as §3

S. aureus ATCC27660 = assay: Time-kill study; format: cell-based
Protocol: Time-kill studies of Compound A versus E. coli ATCC25922, E. coli (lab strain) D31, and S. aureus ATCC27660 were determined in a standard protocol by measuring the time it takes to reduce the initial inoculums 3 log units. Three ml of cation-adjusted Mueller-Hinton medium was inoculated with 20 μL of frozen bacterial stock and incubated at 37° C. on a shaker platform (250 rpm) overnight. […] Compound A stock solution was prepared at 10 mg/mL in DMSO. Time points were collected and viable bacteria were counted on MH Agar plates after an 18 hour incubation. […] See, FIG. 1A and FIG. 1B.

S. aureus (ATCC 13709) = assay: Mouse thigh burden model; format: in vivo; settings: for bacterial reduction vs inoculated control group: thighs at 25 hours
Protocol: Female 6-7-week old CD-1 mice were made neutropenic with cyclophosphamide (150 mg/kg, i.p.) on days 4 and 1 before i.m. inoculation with S. aureus (ATCC 13709). S. aureus inoculum was prepared by transferring colonies from 18-20-hour tryptic soy agar (TSA) cultures to sterile PBS. The density was adjusted to approximately 10^6 cfu/mL with the aid of a spectrophotometer, and the inoculum concentration was determined by the dilution plate count method. Mice were inoculated by injecting each posterior thigh with 0.1 mL of inoculum. Compound A was given to separate groups of mice (4 females/group) by i.v. bolus doses of 1 or 2 mg/kg/dose at 1 and 5, 1 and 9, or 1 and 13 hours post inoculation as shown in Table 5. A separate control group of 4 mice received the inoculum without antibiotic treatment. Compound A was dissolved 50%/50% v/v sterile USP purified water/PBS. Thighs were harvested at 25 hours after inoculation. Thigh muscle and bone tissue were homogenized, aliquots of serial dilutions were plated on TSA and incubated at 37° C. for 20 hours, and colony counts were obtained to calculate cfu/thigh.

For `N=C(N)NCCCCC(=O)Nc1cc(C(F)(F)F)cc(NC(=O)c2cc(C(=O)Nc3cc(C(F)(F)F)cc(NC(=O)CCCCNC(=N)N)c3O[C@H]3CCNC3)ncn2)c1O[C@H]1CCNC1` [Compound A, pyrimidine-4,6-dicarboxylic acid bis-{[3-(5-guanidino-pentanoylamino)-2-((R)-pyrrolidin-3-yloxy)-5-trifluoromethyl-phenyl]-amide}tetrahydrochloride], the MTD [1] was over 24 mg/kg, the “loss of compound in plasma” value ([2]; cynomolgus monkeys) was “little to no loss” and the “loss of compound in plasma” value ([2]; rabbits) was “little to no loss”. For the same molecule, the MTD (in vivo [3]) was over 24 mg/kg, the efficacy in vivo (MSSA 29213) was “efficacious” and the MIC (Staph. spp. (coagulase−)) was 0.25 to 0.5 µg/mL. For the same molecule, the MIC (Staph. saprophyticus) was 0.25 to 0.5 µg/mL, the MIC (Strept. agalactiae) was 2 µg/mL and the MIC (Strept. viridians) was 2 to 8 µg/mL. For the same molecule, the MIC (Entero. faecalis) was 1 µg/mL, the MIC (Staph. spidermidis) was 0.25 to 0.5 µg/mL and the MIC (Entero. faecium (VRE)) was 1 µg/mL. For the same molecule, the MIC (Staph. aureus (MRSA)) was 0.5 to 1 µg/mL, the MIC (Strept. pneumoniae) was 4 to 8 µg/mL and the MIC (Strept. pyogenes) was 1 to 4 µg/mL. The MTD (in vivo [4]) was 30 mg/kg, the “time to reduction of 3 log10 units in the initial inoculum” value (S. aureus ATCC27660; 2×MIC) was 5 hours and the MIC (S. aureus ATCC27660; Staphylococcus aureus, ATCC27660, MIC used in time-kill study) was 1 µg/mL. The “re-growth in the cultures” value (S. aureus ATCC27660; over 72 hours at 1×MIC) was “No re-growth”, the “bacterial reduction vs inoculated control group” value (S. aureus (ATCC 13709); 2 mg/kg/dose i.v. bolus at 1 and 5 hours after inoculation) was 3.96 logs and the “bacterial reduction vs inoculated control group” value (S. aureus (ATCC 13709); 2 mg/kg/dose i.v. bolus at 1 and 9 hours after inoculation) was 3.93 logs. For the same molecule, the “static efficacy dose in the thigh burden model” value (S. aureus (ATCC 13709); mouse) was 2 to 4 mg/kg.
